From patent US8022225B2, “Triazole derivative” (Taisho Pharmaceutical Co., Ltd, priority 2004, dated 2011) come the findings set out here.

For assay [1], the target named is T1, human Edg-1(S1P1) (Homo sapiens, UniProt P21453).
T1 construct: expressed in transfected cells; host or cells: HEK-293
The assay can be described thus: Cell system binding test: inhibition of [3H]-S1P binding to Edg-1(S1P1) gene transferred HEK-293 cells. Particulars: 10 μM compound, [3H]-S1P 10 nM, read-out: Cell system binding test % inhibition (10 μM).

For assay [2], the target named is T1, human Edg-1(S1P1). The assay can be described thus: Membrane system binding test: inhibition of [33P]-S1P binding to the membrane fraction of Edg-1(S1P1) gene transferred HEK-293 cells. To be noted: 10 μM compound; [33P]-S1P 0.1 nM; membrane fraction of Edg-1(S1P1) gene transferred HEK-293 cells; read-out: Membrane system binding test % inhibition (10 μM). A digest of the protocol: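 Membranes from HEK-293 cells transfected with Edg-1(S1P1) incubated 1 h at 30 °C with 0.1 nM [^33P]-S1P and compound at 10^−5 M (0.1% DMSO), pH 7.4 buffer with fatty acid-free BSA. Filter-bound radioactivity counted; inhibition rate calculated against no-compound binding, with untransfected-cell background subtracted.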

By inhibition is commonly meant the change of the read-out against control, counted positive when it falls.

T1 sequence (P21453 whole entry): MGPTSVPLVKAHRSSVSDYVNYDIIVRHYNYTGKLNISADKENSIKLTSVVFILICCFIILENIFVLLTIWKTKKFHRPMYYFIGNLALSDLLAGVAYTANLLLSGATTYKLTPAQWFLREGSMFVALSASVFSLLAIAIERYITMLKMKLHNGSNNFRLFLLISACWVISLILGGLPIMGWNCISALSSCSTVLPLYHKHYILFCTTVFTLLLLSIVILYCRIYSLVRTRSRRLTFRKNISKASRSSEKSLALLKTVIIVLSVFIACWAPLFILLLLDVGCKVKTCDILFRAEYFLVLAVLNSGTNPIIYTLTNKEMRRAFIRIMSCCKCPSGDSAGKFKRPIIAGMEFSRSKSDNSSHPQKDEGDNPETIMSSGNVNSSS

Consider `CCn1c(OC)nnc1[C@@H](C)NS(=O)(=O)c1cc(F)c(Br)cc1F` [Compound 270], for which the figures for the inhibition at 10 µM in assay [1] and in assay [2] were 94.8% and 61.3%, respectively.
In the case of `CCn1c(OC)nnc1[C@@H](C)NS(=O)(=O)c1ccc(Br)c(Br)c1` [Compound 272], the inhibition at 10 µM in assay [1] amounted to 102%; in assay [2], 94.3%.
The corresponding values for `CCn1c(OC)nnc1[C@@H](C)NS(=O)(=O)c1cc(C)ccc1OC` [Compound 273] are 94.3% and 68.4%.
The corresponding values for `CCn1c(OC)nnc1[C@@H](C)NS(=O)(=O)c1ccc(Cl)c(Cl)c1` [Compound 274] are 102% and 104%.
Turning to `CCn1c(OC)nnc1[C@@H](C)NS(=O)(=O)c1cccc(OC(F)(F)F)c1` [Compound 275], the inhibition at 10 µM in assay [1] was 99.4%; in assay [2], 71.9%.
The matching figures for `CCn1c(OC)nnc1[C@@H](C)NS(=O)(=O)c1ccc(C#N)cc1` [Compound 277]: 99.7% and 51.4%.
The matching figures for `CCn1c(OC)nnc1[C@@H](C)NS(=O)(=O)c1ccc(C(C)C)cc1` [Compound 282]: 92.7% and 48.1%.
The corresponding values for `CCCCCc1ccc(S(=O)(=O)N[C@H](C)c2nnc(OC)n2CC)cc1` [Compound 284] are 88% and 41.5%.
Turning to `CCn1c(OC)nnc1[C@@H](C)NS(=O)(=O)c1ccc(F)c(F)c1F` [Compound 285], the inhibition at 10 µM is 97.1% in assay [1] and 63.9% in assay [2].
Regarding `CCn1c(OC)nnc1[C@@H](C)NS(=O)(=O)c1cc(F)ccc1F` [Compound 286], the inhibition at 10 µM in assay [1] came out at 97.5%; in assay [2], 57.4%.
The corresponding values for `CCn1c(OC)nnc1[C@@H](C)NS(=O)(=O)c1ccc(F)c(F)c1` [Compound 287] are 100% and 80.1%.
The corresponding values for `CCn1c(OC)nnc1[C@@H](C)NS(=O)(=O)c1ccc(Br)cc1F` [Compound 288] are 103% and 54.9%.
The matching figures for `CCn1c(OC)nnc1[C@@H](C)NS(=O)(=O)c1cc(F)c(Cl)cc1F` [Compound 289]: 102% and 63.6%.
Take `CCn1c(OC)nnc1[C@@H](C)NS(=O)(=O)Cc1cc(Cl)cc(Cl)c1` [Compound 292]: the results for the inhibition at 10 µM in assay [1] and in assay [2] were 96.7% and 51.4%, respectively.
The corresponding values for `CCn1c(OC)nnc1[C@@H](C)NS(=O)(=O)c1cccc(F)c1` [Compound 299] are 94.5% and 44.4%.
Regarding `CCn1c(OC)nnc1[C@@H](C)NS(=O)(=O)c1cc(F)c(F)cc1F` [Compound 302], the inhibition at 10 µM in assay [1] came to 98.7%; in assay [2] it was 57.7%.
The matching figures for `CCn1c(OC)nnc1[C@@H](C)NS(=O)(=O)c1cc(Br)ccc1Br` [Compound 303]: 97.7% and 56.1%.
The matching figures for `CCn1c(OC)nnc1[C@@H](C)NS(=O)(=O)c1ccc(Br)cc1Br` [Compound 306]: 94.5% and 62.8%.
The matching figures for `CCn1c(OC)nnc1[C@@H](C)NS(=O)(=O)c1ccc(F)c(C#N)c1` [Compound 307]: 96.2% and 68%.
For the molecule `CCn1c(OC)nnc1[C@@H](C)NS(=O)(=O)c1cc(C)cc(C)c1` [Compound 308], the inhibition at 10 µM in assay [1] is 95.5%; in assay [2], 68.1%.
For the molecule `CCn1c(OC)nnc1[C@@H](C)NS(=O)(=O)c1ccc(OC(F)F)cc1` [Compound 309], the inhibition at 10 µM in assay [1] worked out at 93.2%; in assay [2], 46.5%.
The matching figures for `CCn1c(OC)nnc1[C@@H](C)NS(=O)(=O)c1cccc(OC(F)F)c1` [Compound 310]: 98.5% and 78.8%.
The corresponding values for `CCn1c(OC)nnc1[C@@H](C)NS(=O)(=O)c1cc(F)cc(F)c1` [Compound 311] are 97.6% and 52.4%.
For the molecule `CCn1c(OC)nnc1[C@@H](C)NS(=O)(=O)c1ccc(Cl)cc1F` [Compound 312], the values for the inhibition at 10 µM in assay [1] and in assay [2] were 95.9% and 50.7%, respectively.
The corresponding values for `CCn1c(OC)nnc1[C@@H](C)NS(=O)(=O)c1cc(F)c(F)c(F)c1` [Compound 313] are 100% and 93.2%.
As for `CCn1c(OC)nnc1[C@@H](C)NS(=O)(=O)c1ccc(Br)c(C)c1` [Compound 314], the results for the inhibition at 10 µM in assay [1] and in assay [2] were 102% and 100%, respectively.
